# Results from patent publication US20230286946A1, “DIFLUOROMETHYL-PYRIDIN-2-YL TRIAZOLES” (Boehringer Ingelheim International GmbH, priority 2020, published 2023).
# Read-outs that look alike come from different tables or passages of the source.
# Key:
# α5ß2 γ2 GABAA Receptor = target: T1, α5ß2 γ2 GABAA Receptor (Homo sapiens, UniProt P18507+P31644); assay: Assay B: in vitro evaluation of modulation of α5ß2γ2 GABAA receptor, two-electrode voltage clamp in oocytes; format: cell-based; details: for EC50: co-application with 0.5 μM GABA, oocytes, read-out: Assay B: GABAA α 5 β 3 γ 2 EC50
# T1 sequence (P31644 32-462): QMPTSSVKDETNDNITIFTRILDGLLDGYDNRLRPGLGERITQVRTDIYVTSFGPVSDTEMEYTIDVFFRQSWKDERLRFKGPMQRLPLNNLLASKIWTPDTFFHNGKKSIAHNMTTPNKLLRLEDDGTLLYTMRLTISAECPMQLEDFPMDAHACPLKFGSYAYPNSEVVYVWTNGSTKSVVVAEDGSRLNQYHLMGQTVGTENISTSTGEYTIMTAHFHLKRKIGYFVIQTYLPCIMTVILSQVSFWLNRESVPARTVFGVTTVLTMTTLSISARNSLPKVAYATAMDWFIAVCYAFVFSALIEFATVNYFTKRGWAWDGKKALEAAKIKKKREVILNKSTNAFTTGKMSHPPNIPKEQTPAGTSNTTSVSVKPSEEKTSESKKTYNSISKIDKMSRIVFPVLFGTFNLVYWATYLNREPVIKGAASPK
# T1 sequence (P18507 40-376 limits assumed): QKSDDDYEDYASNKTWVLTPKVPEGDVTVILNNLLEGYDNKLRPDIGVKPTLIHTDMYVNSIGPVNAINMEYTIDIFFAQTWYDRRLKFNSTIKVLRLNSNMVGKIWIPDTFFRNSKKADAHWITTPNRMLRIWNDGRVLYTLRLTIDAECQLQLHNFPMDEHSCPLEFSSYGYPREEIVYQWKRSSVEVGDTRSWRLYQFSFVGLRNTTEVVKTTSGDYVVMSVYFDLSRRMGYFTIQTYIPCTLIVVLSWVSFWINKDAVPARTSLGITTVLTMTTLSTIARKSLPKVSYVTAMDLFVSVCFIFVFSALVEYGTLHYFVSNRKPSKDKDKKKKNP
# Procedure: Assay B: In Vitro Evaluation of Modulation of α5ß2 γ2 GABAA Receptor.
# Modulatory efficacy of compounds of formular (I) is determined electrophysiological recordings in oocytes using the two-electrode voltage clamp (TEVC) technique. Oocytes are injected with cRNA for human GABAA receptor subunits α5, ß2 and γ2 in a 3:1:3 ratio and modulatory efficacy is evaluated by co-applications with a submaximal EC5-20 GABA concentration (0.5 μM) termed GABA control. As a standard, the compounds are tested in five concentrations (3.16, 0.316, 0.0316, 0.00316 and 0.000316 μM) on each oocyte starting with the lowest concentration. Background subtracted peak current amplitudes are normalized to the respective GABAcontrol current, converted to % change and depicted +/−S.E.M. as a function of increasing compound concentrations. Plotted datapoints are fitted to the empirical Hill equation using non-linear regression. 95% confidence intervals for maximal efficacy (Bottom) and potency (Log EC50) are derived from this fitting routine.
# [1] = target: T2, human GABAA α5β3γ2s receptor (Homo sapiens, UniProt P18507+P31644); assay: Assay A: in vitro inhibition of 3H-flumazenil binding, HEK cells expressing the human GABAA α5β3γ2s receptor
# T2 sequence (P18507 1-475): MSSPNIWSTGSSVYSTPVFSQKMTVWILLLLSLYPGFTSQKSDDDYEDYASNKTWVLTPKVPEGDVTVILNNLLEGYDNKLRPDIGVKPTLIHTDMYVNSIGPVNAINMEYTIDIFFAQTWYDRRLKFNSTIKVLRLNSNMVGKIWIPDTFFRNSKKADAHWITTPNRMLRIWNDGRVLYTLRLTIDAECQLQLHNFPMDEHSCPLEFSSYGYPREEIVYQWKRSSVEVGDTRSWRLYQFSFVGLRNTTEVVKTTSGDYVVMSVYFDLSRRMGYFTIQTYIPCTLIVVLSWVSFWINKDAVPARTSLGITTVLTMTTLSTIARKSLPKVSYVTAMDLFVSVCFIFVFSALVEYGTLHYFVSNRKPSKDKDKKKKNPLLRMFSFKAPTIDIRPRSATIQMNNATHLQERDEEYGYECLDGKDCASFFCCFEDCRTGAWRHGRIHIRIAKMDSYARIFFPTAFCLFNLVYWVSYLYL
# T2 sequence (P31644 1-462): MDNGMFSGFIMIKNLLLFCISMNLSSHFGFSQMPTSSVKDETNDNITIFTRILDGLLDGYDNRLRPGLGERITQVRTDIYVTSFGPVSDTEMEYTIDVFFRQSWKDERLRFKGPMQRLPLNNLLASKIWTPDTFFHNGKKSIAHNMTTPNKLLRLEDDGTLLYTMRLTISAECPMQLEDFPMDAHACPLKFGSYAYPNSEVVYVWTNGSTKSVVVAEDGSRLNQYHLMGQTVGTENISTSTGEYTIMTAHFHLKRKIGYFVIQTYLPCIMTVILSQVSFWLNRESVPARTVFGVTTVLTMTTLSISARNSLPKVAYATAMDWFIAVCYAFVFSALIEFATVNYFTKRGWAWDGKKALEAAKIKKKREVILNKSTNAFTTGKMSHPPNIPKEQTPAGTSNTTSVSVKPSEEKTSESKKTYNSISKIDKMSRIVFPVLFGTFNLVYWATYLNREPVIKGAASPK
# Procedure: Cell Cultures and Membrane Preparation
# HEK-293 cell lines with stable expression of recombinant human GABAA α5ß3 γ2s receptors (plasmid H46/E9/B10) are seeded in T175 polystyrene flasks or roller bottles (1700 cm^2, Fisher Scientific CCI-431191), and cultured (37° C., 5% CO2) in Dulbecco's Modified Eagle Medium (DMEM) with GlutaMAX™ supplemented with 10% fetal bovine serum and one or both of the following antibiotics: hygromycin B ([…]; γ2 subunit) or G418 (0.5 mg/ml; […]).
# When the cultures reach confluency, the DMEM is removed and the cells are washed (10 ml for T175 flasks; 50 ml for roller bottles) once in Dulbecco's Phosphate Buffered Saline (DPBS). Following addition of DPBS to the cultures (10 ml for T175 flasks; 100 ml for roller bottles) for approximately 5 min cells are easily detached from the surface by shaking or tapping the flask gently. The cell suspension is transferred to Falcon tubes and centrifuged at 23,500×g for 10 min at 2° C. The pellet is washed once in 15 ml Tris-citrate buffer (50 mM, pH 7.1) using an Ultra-Turrax homogenizer and centrifuged at 2° C. for 10 min at 27,000×g. The washed pellet is re-suspended in 15 ml Tris-citrate buffer and frozen at −80° C. until the day of the binding experiment.
# On the day of the experiment the cell membrane preparation is thawed and centrifuged at 2° C. for 10 min at 27,000×g. The pellet is re-suspended, using an Ultra-Turrax homogenizer in Tris-citrate buffer, to 15-50 µg protein per assay and then used for binding assays.
# Non-specific binding is determined using clonazepam ([…]).
# All dilutions of test compounds and incubation of assay are performed in glass vials/96-vial plates. […] Compounds are dissolved in 100% DMSO (10 mM stock), diluted in 48% ethanol-water, and tested in triplicate in serial 1:3 or 1:10 dilutions. When screening large numbers of compounds only one concentration of each compound is tested in single wells. Reference compounds are not included routinely, but for each experiment performed total and nonspecific binding is compared to data obtained during validation of the assay.
# Binding is either terminated by rapid filtration onto
# 1) Whatman GF/C glass fibre filters using a Brandel Cell harvester, followed by 5 washes with 1 ml ice-cold buffer or onto 2) UniFilter GF/C glass fibre filter plates using a Tomtec cell harvester, followed by washing with approximately 5 ml ice-cold buffer.
# The amount of radioactivity on the filters is determined by conventional liquid scintillation counting using a
# 1) Tri-Garb™ counter (PerkinElmer Life and Analytical Sciences) for separate large filters or
# 2) Topcount™ counter (PerkinElmer Life and Analytical Sciences) for 96-well filter plates.
# Specific binding is total binding minus non-specific binding.
# The IC50 value for a test compound is determined based on the equation: […]
# where B is the binding in percentage of total specific binding; C is the concentration of test compound; and n is the Hill coefficient. For screening purposes n is set to 1. The IC50 value is calculated from the concentration response curves by the non-linear regression method using the curve-fitting program GraphPad Prism.
# The Ki value for a test compound can be calculated from the IC50 value using the equation by Cheng and Prusoff: […]
# [2] = read-out: Assay A: GABAA α 5 β 3 γ 2s Ki
# [3] = comparison compounds of WO 2020/016433, read-out: Assay A: GABAA α5 β3 γ2S Ki
Structure (SMILES),Assay B: GABAA α 5 β 3 γ 2 Emax vs GABA (α5ß2 γ2 GABAA Receptor) [%],EC50 (α5ß2 γ2 GABAA Receptor) [nM],"Ki [1, 2] [nM]","Ki ([1]; compounds of the present invention, read-out: Assay A: GABAA α5 β3 γ2S Ki) [nM]","Ki [1, 3] [nM]"
Cc1nnn(-c2ccc(C(F)F)cn2)c1COc1ccc(-c2cccc(C#N)n2)nn1 [Example 11],-13.5,37.5,9,,
CCn1cc(-c2ccc(OCc3c(C)nnn3-c3ccc(C(F)F)cn3)nn2)ccc1=O [Example 21],-4,,10,,
CNc1cc(-c2ccc(OCc3c(-c4ccc(C(F)F)cn4)nnn3C)nn2)ccn1 [Example 26],-5.3,,14,,
Cn1nnc(-c2ccc(C(F)F)cn2)c1COc1ccc(-c2cncc(C#N)c2)nn1 [Example 27],-6.7,,12,,
Cn1ccc(-c2ccc(OCc3c(-c4ccc(C(F)F)cn4)nnn3C)nn2)n1 [Example 34],-17,4.2,25,,
CCc1cn(-c2ccc(OCc3c(-c4ccc(C(F)F)cn4)nnn3C)nn2)nc1N [Example 40],-10.3,32.7,8,,
CNc1cc(C)nn1-c1ccc(OCc2c(-c3ccc(C(F)F)cn3)nnn2C)nn1 [Example 41],-21.3,43.7,2,,
CCc1nccn1-c1ccc(OCc2c(-c3ccc(C(F)F)cn3)nnn2C)nn1 [Example 45],-17.3,23,150,,
Cn1nnc(-c2ccc(C(F)F)cn2)c1COc1ccc(-n2ccnc2C#N)nn1 [Example 46],-26.3,10.4,220,,
Cc1nccn1-c1ccc(OCc2c(-c3ccc(C(F)F)cn3)nnn2C)nn1 [Example 47],-7,15.5,120,,
"Cn1nnc(-c2ccc(C(F)F)cn2)c1COc1ccc(-n2cc(Cl)cn2)nn1 [Example 51, 3-(4-chloro-1H-pyrazol-1-yl)-6-({4-[5-(difluoromethyl)pyridin-2-yl]-1-methyl-1H-1,2,3-triazol-5-yl}methoxy)pyridazine]",-27.3,29,15,,
Cc1nnn(-c2ccc(C(F)F)cc2)c1COc1ccc(-c2cnccn2)nn1 [reference compound],,,,,0.249
Cc1nnn(-c2ccc(C(F)F)cc2)c1COc1ccc(-c2ccn[nH]2)nn1 [reference compound],,,,,0.12
Cc1nnn(-c2ccc(C(F)F)cc2)c1COc1ccc(-n2cncn2)nn1 [reference compound],,,,,0.546

# Next, values leading:
Assay B: GABAA α 5 β 3 γ 2 Emax vs GABA (α5ß2 γ2 GABAA Receptor) [%],EC50 (α5ß2 γ2 GABAA Receptor) [nM],"Ki [1, 2] [nM]","Ki ([1]; compounds of the present invention, read-out: Assay A: GABAA α5 β3 γ2S Ki) [nM]","Ki [1, 3] [nM]",Structure (SMILES)
-8,75,9,,,CSc1ccc(-c2ccc(OCc3c(C)nnn3-c3ccc(C(F)F)cn3)nn2)cn1 [Example 10]
-9,44.5,6,,,Cc1nnn(-c2ccc(C(F)F)cn2)c1COc1ccc(-c2cncc(C#N)c2)nn1 [Example 13]
,,> 8890,,,Cc1nnn(-c2ccc(C(F)F)cn2)c1COc1ccc(-n2cnc(C(N)=O)c2)nn1 [Example 36]
-17.7,14.1,14,,,Cc1nnn(-c2ccc(C(F)F)cn2)c1COc1ccc(-n2ccnn2)nn1 [Example 44]
-34.7,15,14,,,"Cc1nnn(-c2ccc(C(F)F)cn2)c1COc1ccc(-n2cc(F)cn2)nn1 [Example 54, 3-({1-[5-(difluoromethyl)pyridin-2-yl]-4-methyl-1H-1,2,3-triazol-5-yl}methoxy)-6-(4-fluoro-1H-pyrazol-1-yl)pyridazine]"
-20.3,24.3,32,0.032,,Cc1nnn(-c2ccc(C(F)F)cn2)c1COc1ccc(-n2cncn2)nn1 [Example 55]
,,,,0.126,Cc1nnn(-c2ccc(C(F)F)cc2)c1COc1ccc(-n2cnc(C#N)c2)nn1 [reference compound]
